Source: patent US10253323B2, “Chloroplast transit peptides” (priority 2015, dated 2019)
“Also recorded” adds a separate entry of the source.

B1: TraP17: chimeric chloroplast transit peptide, SEQ ID NO:3; N-terminus Calystegia, C-terminus Chlamydamonas reinhardtii; tested fused to GFP (pDAB107634) (protein)
chain: MAQVNNMMQGLRLSPSNLSKPQTPLPSHSLLLGSNSLKNSVSASSVAPAPACSAPAGAGRRAVVVR
modifications: TraP17
B2: TraP10: chimeric chloroplast transit peptide, SEQ ID NO:1; N-terminus Brassica napus, C-terminus Glycine max EPSPS; tested fused to YFP (pDAB101979) (protein)
chain: MAQSSRICHGVQNPCVIISNLSKSNQNKSPFSVSLRPRLWGASKSRIPMHKNGSFMGNFNVGKGNSGVFKVS
modifications: TraP10

Key:
[1] = tested on: infiltrated tobacco cells; assay: Western blot of infiltrated tobacco plants; assay type: cell-based, Nicotiana tabacum; details: infiltrated tobacco leaf tissue
Method: Samples of the infiltrated tobacco plants were assayed via Western blotting. Leaf punches were collected and subjected to bead-milling. About 100-200 mg of leaf material was mixed with 2 BBs (Daisy; Rogers, Ark.) and […] of PBST for 3 minutes in a Kleco™ bead mill. The samples were then spun down in a centrifuge at 14,000× g at 4° C. The supernatant was removed and either analyzed directly via Western blot or immunoprecipitated. The immunoprecipitations were performed using the Pierce Direct IP Kit™ (Thermo Scientific; Rockford, Ill.) following the manufacturer's protocol. Approximately, 50 μg of anti-YFP or anti-GFP was bound to the resin. The samples were incubated with the resin overnight at 4° C. Next, the samples were washed and eluted the following morning and prepped for analysis by combining equal volumes of 2×8M Urea sample buffer and then boiling the samples for 5 minutes. The boiled samples were run on a 4-12% SDS-Bis Tris gel in MOPS buffer for 40 minutes. The gel was then blotted using the Invitrogen iBlot™ (Life Technologies; Carlsbad, Calif.) following the manufacturer's protocol. The blotted membrane was blocked for 10 minutes using 5% non-fat dry milk in PBS-Tween® solution. The membrane was probed with the primary antibody (monoclonal anti-GFP or anti-YFP in rabbit) used at a 1:1000 dilution in the 5% non-fat dry milk in PBS-Tween® solution for 1 hour. Next, the membrane was rinsed three times for five minutes with PBS-Tween® to remove all unbound primary antibody. The membrane was probed with a secondary monoclonal anti-rabbit in goat antibody (Life Technologies) used at a 1:1000 dilution, for 60 minutes. The membrane was washed as previously described and developed by adding Themo BCIP/NBT™ substrate. The colormetric substrate was allowed to develop for 5-10 minutes and then the blots were rinsed with water before being dried.

[2] = tested on: chloroplasts of the tobacco leaf tissues; assay: Tobacco transient assay, confocal microscopy of TraP-YFP/GFP; assay type: cell-based, Nicotiana tabacum; details: TraP-YFP or TraP-GFP fusion, Agrobacterium-infiltrated tobacco leaf tissue
From the text: The above described chimeric chloroplast transit peptide sequences were initially tested via a transient in planta assay. Polynucleotide sequences which encode the TraP10 (SEQ ID NO:9), TraP11 (SEQ ID NO:10), TraP17 (SEQ ID NO:11), TraP18 (SEQ ID NO:12), TraP19 (SEQ ID NO:13), TraP26 (SEQ ID NO:14), TraP27 (SEQ ID NO:15), and TraP28 (SEQ ID NO:16), chimeric chloroplast transit peptide sequences were synthesized. A linker sequence (SEQ ID NO:17) was incorporated between the TraP sequence and the yfp coding sequence of TraP10 and TraP11. The resulting constructs contained two plant transcription units (PTU). The first PTU was comprised of the Arabidopsis thaliana Ubiquitin 10 promoter (AtUbi10 promoter; Callis, et al., (1990) J. Biol. Chem., 265: 12486-12493), TraP-yellow fluorescent protein fusion gene (TraP-YFP; US Patent App. 2007/0298412) or the TraP-green fluorescent protein fusion gene (TraP-GFP; Sheen et al., (1995) Plant J., 8(5): 777-84), and Agrobacterium tumefaciens ORF 23 3′ untranslated region (AtuORF23 3′UTR; U.S. Pat. No. 5,428,147). The second PTU was comprised of the Cassava Vein Mosaic Virus promoter (CsVMV promoter; Verdaguer et al., (1996) Plant Molecular Biology, 31: 1129-1139), phosphinothricin acetyl transferase (PAT; Wohlleben et al., (1988) Gene, 70: 25-37) or DSM-II (International Patent App. 2008070845), and Agrobacterium tumefaciens ORF 1 3′ untranslated region (AtuORF1 3′UTR; Huang et al., (1990) J. Bacteriol., 172: 1814-1822). Construct pDAB101979 contains the TraP10 chimeric chloroplast transit peptide (FIG. 3). Construct pDAB101980 contains the TraP11 chimeric chloroplast transit peptide (FIG. 4). Construct pDAB107634 contains the TraP17 chimeric chloroplast transit peptide (FIG. 5). Construct pDAB107635 contains the TraP18 chimeric chloroplast transit peptide (FIG. 6). Construct pDAB107636 contains the TraP19 chimeric chloroplast transit peptide (FIG. 7). Construct pDAB109847 contains the TraP26 chimeric chloroplast transit peptide (FIG. 8). Construct pDAB109848 contains the TraP27 chimeric chloroplast transit peptide (FIG. 9). Construct pDAB109849 contains the TraP28 chimeric chloroplast transit peptide (FIG. 10). […] The constructs were confirmed via restriction enzyme digestion and sequencing. Finally, the constructs were transformed into Agrobacterium tumefaciens and stored as glycerol stocks.
From an Agrobacterium glycerol stock, a loop full of frozen culture was inoculated into 2 ml of Yeast-extract Peptone Dextrose (100 μg/ml spectinomycin) in a 14 ml sterile tube. The inoculated media was incubated at 28° C. overnight with shaking at 200 rpm. The following day about 100 μl of the culture was used to inoculate 25 ml of YPD (100 μg/ml spectinomycin) in a 125 ml sterile tri-baffled flask, and incubated overnight at 28° C. overnight with shaking at 200 rpm. The following day the cultures were diluted to an OD600 of 0.5 in sterile ddH2O (pH 8.0). The diluted Agrobacterium strain was mixed with a second Agrobacterium strain containing the P19 helper protein at a ratio of 1:1. The culture were used for tobacco leaf infiltration via the Voinnet method. Voinnet O, Rivas S, Mestre P, and Baulcombe D, (2003) An enhanced transient expression system in plants based on suppression of gene silencing by the p19 protein of tomato bushy stunt virus. The Plant Journal, 33: 949-956. Infiltrated tobacco plants were placed in a Conviron™ set at 16 hr of light at 24° C. for at least three days until being assayed.
Agrobacterium-infiltrated tobacco leaves were severed from the plant, and placed into a petri-dish with water to prevent dehydration. The infiltrated tobacco leaves were observed under blue light excitation with long-pass filter glasses held in place using a Dark Reader Hand Lamp™ (Clare Chemical Research Co.; Dolores, Colo.) to identify undamaged areas of the leaf that were successfully expressing the YFP or GFP reporter proteins. […]

[3] = tested on: dgt-28 transformed T1 Arabidopsis; assay: Glyphosate tolerance of dgt-28 transformed T1 Arabidopsis; assay type: in vivo, Arabidopsis thaliana; details: dgt-28 linked with the chloroplast transit peptide, T1 Arabidopsis
Method: The Arabidopsis T1 transformants (from transformation with pDAB114286 or pDAB114287) were first selected from the background of untransformed seed using a glufosinate selection scheme. Three flats or 50,000 seed were analyzed for each T1 construct. The selected T1 plants were molecularly characterized (as described above) and events with a range of copy number were sprayed with various rates of commercial glyphosate.
Transgenic T1 Arabidopsis plants containing the dgt-28 transgene were sprayed with differing rates of glyphosate. Elevated rates were applied in this study to determine the relative levels of resistance (420, 840, 1,680 or 3,360 g ae/ha). The typical 1× field usage rate of glyphosate is 1120 g ae/ha. The response of these plants is presented in terms of % visual injury 2 weeks after treatment (WAT). The T1 Arabidopsis plants that were used in this study were of variable copy number for the dgt-28 transgene. The low copy dgt-28 T1 Arabidopsis plants were self-pollinated and used to produce T2 plants.
An arithmetic mean and standard deviation is presented for each construct used for Arabidopsis transformation. The range in individual response is also indicated in the last column for each rate and transformation. Wildtype, non-transformed Arabidopsis thaliana c.v. Columbia served as a glyphosate sensitive control.

[4] = tested on: chloroplasts of the maize protoplasts; assay: Maize protoplast transient assay, microscopy of TraP-GFP; assay type: cell-based, Zea mays c.v. B104; details: TraP-GFP fusion, transfected maize protoplasts, microscopy after 12 hours
Method: Seed of Zea mays c.v. B104 were surface sterilized by shaking vigorously in 50% Clorox™ (3% sodium hypochlorite), containing 2-3 drops of Tween® 20, for about 20 minutes. The seeds were rinsed thoroughly with sterile distilled water. The sterile seed were plated onto ½ MS medium in Phytatrays or similar type boxes, and allowed to grow in the dark (28° C.) for 12 to 20 days. A maize protoplast transient assay was used to obtain and transfect maize protoplasts from leaves of Zea mays c.v. B104. This maize protoplast assay is a modification of the system described by Yoo, S.-D., Cho, Y.-H., and Sheen, J., (2007), Arabidopsis Mesophyll Protoplasts: A Versitile Cell System for Transient Gene Expression Analysis, Nature Protocols, 2: 1565-1572. The solutions were prepared as described by Yoo et. al., (2007), with the exception that the mannitol concentration used for the following experiments was change to 0.6 M.
Transfection of 100 to 500 μl of protoplasts (1-5×10^5 cells) was completed by adding the protoplasts to a 2 ml microfuge tube containing about 40 μg of plasmid DNA, at room temperature. The volume of DNA was preferably kept to about 10% of the protoplast volume. The protoplasts and DNA were occasionally mixed during a 5 minute incubation period. An equal volume of PEG solution was slowly added to the protoplasts and DNA, 2 drops at a time with mixing in between the addition of the drops of PEG solution. The tubes were allowed to incubate for about 10 minutes with occasional gentle mixing. Next, 1 ml of W5+ solution was added and mixed by inverting the tube several times. The tube(s) were centrifuged for 5 minutes at 75× g at a temperature of 4° C. Finally, the supernatant was removed and the pellet was resuspended in 1 ml of WI solution and the protoplasts were placed into a small petri plate (35×10 mm) or into 6-well multiwell plates and incubated overnight in the dark at room temperature. Fluorescence of GFP was viewed by microscopy after 12 hours of incubation. The microscopy conditions similar to those previously described were used for the imaging.

| Molecule | TraP processed and cleaved from the YFP or GFP protein [1] | translocation of YFP or GFP fluorescent protein into chloroplasts [2] | translocation of YFP or GFP fluorescent protein into chloroplasts ([2]; listed as TraP28-GFP) | protection to glyphosate [3] | translocation of YFP or GFP fluorescent protein into chloroplasts ([2]; listed as TraP26-GFP) | translocation of GFP fluorescent protein into chloroplasts [4] | translocation of GFP fluorescent protein into chloroplasts ([4]; listed as TraP17-GFP) | translocation of YFP or GFP fluorescent protein into chloroplasts ([2]; listed as TraP17-GFP) | translocation of YFP or GFP fluorescent protein into chloroplasts ([2]; listed as TraP10-YFP) |
| --- | --- | --- | --- | --- | --- | --- | --- | --- | --- |
| TraP28: synthetic chloroplast transit peptide, SEQ ID NO:8; tested fused to GFP (pDAB109849) (MAVQSNMICAGVANPFVSPNLSKTRASKSVYSVLGTRLNSSARGKKSAMPLIGNRVPVSA; TraP28) | processed and cleaved from the YFP or GFP protein | accumulated within the chloroplasts; also recorded: successfully targeted GFP to tobacco chloroplasts | translocated into the chloroplasts |  |  |  |  |  |  |
| TraP26: synthetic chloroplast transit peptide, SEQ ID NO:6; tested fused to GFP (pDAB109847) (MAQVSMIPNAIQAPCSISLSKSQAGKSVRKVSLKPNQHAAWGLRRSGMRVGNPEVVVSAS; TraP26) | processed and cleaved from the YFP or GFP protein | accumulated within the chloroplasts; also recorded: successfully targeted GFP to tobacco chloroplasts |  | provide protection to glyphosate | translocated into the chloroplasts |  |  |  |  |
| B1 |  | did not translocate YFP fluorescent proteins into the chloroplasts of tobacco |  |  |  | did translocate YFP fluorescent proteins into the chroroplasts of maize; also recorded: accumulated within the chloroplasts; also recorded: successfully targeted GFP to maize chloroplasts | translocated into the chloroplasts | did not translocate into the chloroplasts |  |
| B2 | processed and cleaved from the YFP or GFP protein | accumulated within the chloroplasts; also recorded: successfully targeted YFP to tobacco chloroplasts |  |  |  |  |  |  | translocated into the chloroplasts |
